Literature values as cited in PubChem BioAssay AID1259409 (Chemical Carcinogenesis Research Information System (CCRIS), 2018).

System: rodent chemically induced tumor inhibition, incidence and multiplicity
Assay: CCRIS tumor inhibitor studies

O=c1oc2c(O)c(O)cc3c(=O)oc4c(O)c(O)cc1c4c23
tumour outcome (control, treated, inhibition, significance) (Carcinogen: BENZO[A]PYRENE, 50-32-8, Dose [Inhibitor]: 0, 2500 NMOL IN 200 µL ACETONE:METHANOL (45:55) ONCE APPLIED 5 MIN PRIOR TO CARCINOGEN DOSE (STUDY DURATION: 21 WK), Route [Inhibitor]: DERMAL, Species: MOUSE, Strain/Sex: CD-1/FEMALE, Target Tissue: Type of Lesion: SKIN: TUMOR, Dose [Carcinogen]: 50 NMOL IN ACETONE:DMSO (90:10) ONCE, Promoter: 12-O-TETRADECANOYLPHORBOL-13-ACETATE, 16561-29-8): 55%, 33%, 40%, not significant | tumour outcome (control, treated, inhibition, significance) (Carcinogen: BENZO[A]PYRENE, 50-32-8, Dose [Inhibitor]: 100 MG/KG ADMINISTERED 1 HR BEFORE AND 6, 24, AND 48 HR AFTER BENZO[A]PYRENE TREATMENT (STUDY DURATION: 6 MO), Route [Inhibitor]: INTRAPERITONEAL, Species: MOUSE, Strain/Sex: STRAIN-A/MALE, Target Tissue: Type of Lesion: LUNG: ADENOMA, Dose [Carcinogen]: 100 MG/KG ONCE, Promoter: NONE USED): 18/18 (100%), 4/6 (67%), 33%, not significant | tumour outcome (control, treated, inhibition, significance) (Carcinogen: BENZO[A]PYRENE, 50-32-8, Dose [Inhibitor]: 100 MG/KG ADMINISTERED 1 HR BEFORE AND 6, 24, AND 48 HR AFTER CARCINOGEN TREATMENT FOLLOWED BY 6 MO OBSERVATION PERIOD (, Route [Inhibitor]: INTRAPERITONEAL, Species: MOUSE, Strain/Sex: STRAIN-A/MALE, Target Tissue: Type of Lesion: LUNG: ADENOMA, Dose [Carcinogen]: 100 MG/KG ONCE, Promoter: NONE USED): 18/18 (100%), 4/6 (67%), 33%, not significant | tumour outcome (control, treated, inhibition, significance) (Carcinogen: BENZO[A]PYRENE, 50-32-8, Dose [Inhibitor]: 100 MG/KG STARTING 5 D BEFORE AND CONTINUING THROUGH 10 D AFTER CARCINOGEN TREATMENT (STUDY DURATION: 6 MO), Route [Inhibitor]: ORAL, Species: MOUSE, Strain/Sex: STRAIN-A/MALE, Target Tissue: Type of Lesion: LUNG: ADENOMA, Dose [Carcinogen]: 100 MG/KG ONCE, Promoter: NONE USED): 18/18 (100%), 19/19 (100%), 0%, not significant | tumour outcome (control, treated, inhibition, significance) (Carcinogen: BENZO[A]PYRENE, 50-32-8, Dose [Inhibitor]: 100 MG/KG/D IN DIET STARTING 5 D BEFORE AND CONTINUING TO 10 D AFTER CARCINOGEN TREATMENT FOLLOWED BY 6 MO OBSERVATION P, Route [Inhibitor]: ORAL, Species: MOUSE, Strain/Sex: STRAIN-A/MALE, Target Tissue: Type of Lesion: LUNG: ADENOMA, Dose [Carcinogen]: 100 MG/KG ONCE, Promoter: NONE USED): 18/18 (100%), 19/19 (100%), 0%, not significant | tumour outcome (control, treated, inhibition, significance) (Carcinogen: DIBENZO[A,H]PYRENE, 189-64-0, Dose [Inhibitor]: 0, 300 NMOL (TOTAL DOSE) APPLIED 10 MIN PRIOR TO CARCINOGEN DOSE INJECTED AS 1/7, 2/7, AND 4/7 OF THE TOTAL ON DAYS 1, 8, Route [Inhibitor]: INTRAPERITONEAL, Species: MOUSE, Strain/Sex: ICR/MALE,FEMALE, Target Tissue: Type of Lesion: LUNG: TUMOR, Dose [Carcinogen]: 50 NMOL (TOTAL DOSE) INJECTED IN DOSES OF 1/7, 2/7, AND 4/7 ON DAYS 1, 8, AND 15 OF LIFE, RESPECTIVELY, Promoter: NONE USED): 95%, 100%, -5%, not significant | tumour outcome (control, treated, inhibition, significance) (Carcinogen: DIETHYLNITROSAMINE, 55-18-5, Dose [Inhibitor]: 0, 900 MG/KG BW BY INTRAPERITONEAL INJECTION ON DAYS 13, 14 AND 15 OF AGE THEN 6 G/KG DIET FROM 21 TO 161 DAYS OF AGE (S, Route [Inhibitor]: INTRAPERITONEAL, ORAL, Species: MOUSE, Strain/Sex: C3H/MALE, Target Tissue: Type of Lesion: LIVER: ADENOMA, Dose [Carcinogen]: 4 MG/KG IN TRICAPRYLIN ONCE ON DAY 15 OF AGE, Promoter: NONE USED): 100%, 100%, 0%, not significant | tumour outcome (control, treated, inhibition, significance) (Carcinogen: DIETHYLNITROSAMINE, 55-18-5, N-METHYLNITROSOUREA, 684-93-5, 1,2-DIMETHYLHYDRAZINE, 540-73-8, N-BUTYL-N-(4-HYDROXYB, Carcinogen: DIETHYLNITROSAMINE, 55-18-5, N-METHYLNITROSOUREA, 684-93-5, 1,2-DIMETHYLHYDRAZINE, 540-73-8, N-BUTYL-N-(4-HYDROXYB, Dose [Inhibitor]: 0, 1% IN DIET FOR 4 WK BEGINNING 1 DAY PRIOR TO CARCINOGEN TREATMENT (STUDY DURATION: 36 WK), Route [Inhibitor]: ORAL, Species: RAT, Strain/Sex: F344/MALE, Target Tissue: Type of Lesion: KIDNEY: ADENOMA, Dose [Carcinogen]: 100 MG/KG DEN ONCE, 20 MG/KG MNU 4 TIMES, 40 MG/KG DMH 4 TIMES, 0.05% BBN IN DRINKING WATER FOR 2 WK, 0.1% DHPN IN D, Dose [Carcinogen]: 100 MG/KG DEN ONCE, 20 MG/KG MNU 4 TIMES, 40 MG/KG DMH 4 TIMES, 0.05% BBN IN DRINKING WATER FOR 2 WK, 0.1% DHPN IN D, Promoter: NONE USED): 4/14 (29%), 1/12 (8%), 72%, not significant | tumour outcome (control, treated, inhibition, significance) (Carcinogen: DIETHYLNITROSAMINE, 55-18-5, N-METHYLNITROSOUREA, 684-93-5, 1,2-DIMETHYLHYDRAZINE, 540-73-8, N-BUTYL-N-(4-HYDROXYB, Carcinogen: DIETHYLNITROSAMINE, 55-18-5, N-METHYLNITROSOUREA, 684-93-5, 1,2-DIMETHYLHYDRAZINE, 540-73-8, N-BUTYL-N-(4-HYDROXYB, Dose [Inhibitor]: 0, 1% IN DIET FOR 4 WK BEGINNING 1 DAY PRIOR TO CARCINOGEN TREATMENT (STUDY DURATION: 36 WK), Route [Inhibitor]: ORAL, Species: RAT, Strain/Sex: F344/MALE, Target Tissue: Type of Lesion: KIDNEY: NEPHROBLASTOMA, Dose [Carcinogen]: 100 MG/KG DEN ONCE, 20 MG/KG MNU 4 TIMES, 40 MG/KG DMH 4 TIMES, 0.05% BBN IN DRINKING WATER FOR 2 WK, 0.1% DHPN IN D, Dose [Carcinogen]: 100 MG/KG DEN ONCE, 20 MG/KG MNU 4 TIMES, 40 MG/KG DMH 4 TIMES, 0.05% BBN IN DRINKING WATER FOR 2 WK, 0.1% DHPN IN D, Promoter: NONE USED): 7/14 (50%), 5/12 (42%), 16%, not significant | tumour outcome (control, treated, inhibition, significance) (Carcinogen: DIETHYLNITROSAMINE, 55-18-5, N-METHYLNITROSOUREA, 684-93-5, 1,2-DIMETHYLHYDRAZINE, 540-73-8, N-BUTYL-N-(4-HYDROXYB, Carcinogen: DIETHYLNITROSAMINE, 55-18-5, N-METHYLNITROSOUREA, 684-93-5, 1,2-DIMETHYLHYDRAZINE, 540-73-8, N-BUTYL-N-(4-HYDROXYB, Dose [Inhibitor]: 0, 1% IN DIET FOR 4 WK BEGINNING 1 DAY PRIOR TO CARCINOGEN TREATMENT (STUDY DURATION: 36 WK), Route [Inhibitor]: ORAL, Species: RAT, Strain/Sex: F344/MALE, Target Tissue: Type of Lesion: LARGE INTESTINE: ADENOMA, Dose [Carcinogen]: 100 MG/KG DEN ONCE, 20 MG/KG MNU 4 TIMES, 40 MG/KG DMH 4 TIMES, 0.05% BBN IN DRINKING WATER FOR 2 WK, 0.1% DHPN IN D, Dose [Carcinogen]: 100 MG/KG DEN ONCE, 20 MG/KG MNU 4 TIMES, 40 MG/KG DMH 4 TIMES, 0.05% BBN IN DRINKING WATER FOR 2 WK, 0.1% DHPN IN D, Promoter: NONE USED): 7/14 (50%), 5/12 (42%), 16%, not significant | tumour outcome (control, treated, inhibition, significance) (Carcinogen: DIETHYLNITROSAMINE, 55-18-5, N-METHYLNITROSOUREA, 684-93-5, 1,2-DIMETHYLHYDRAZINE, 540-73-8, N-BUTYL-N-(4-HYDROXYB, Carcinogen: DIETHYLNITROSAMINE, 55-18-5, N-METHYLNITROSOUREA, 684-93-5, 1,2-DIMETHYLHYDRAZINE, 540-73-8, N-BUTYL-N-(4-HYDROXYB, Dose [Inhibitor]: 0, 1% IN DIET FOR 4 WK BEGINNING 1 DAY PRIOR TO CARCINOGEN TREATMENT (STUDY DURATION: 36 WK), Route [Inhibitor]: ORAL, Species: RAT, Strain/Sex: F344/MALE, Target Tissue: Type of Lesion: LARGE INTESTINE: CARCINOMA, Dose [Carcinogen]: 100 MG/KG DEN ONCE, 20 MG/KG MNU 4 TIMES, 40 MG/KG DMH 4 TIMES, 0.05% BBN IN DRINKING WATER FOR 2 WK, 0.1% DHPN IN D, Dose [Carcinogen]: 100 MG/KG DEN ONCE, 20 MG/KG MNU 4 TIMES, 40 MG/KG DMH 4 TIMES, 0.05% BBN IN DRINKING WATER FOR 2 WK, 0.1% DHPN IN D, Promoter: NONE USED): 3/14 (21%), 4/12 (33%), -57%, not significant | tumour outcome (control, treated, inhibition, significance) (Carcinogen: DIETHYLNITROSAMINE, 55-18-5, N-METHYLNITROSOUREA, 684-93-5, 1,2-DIMETHYLHYDRAZINE, 540-73-8, N-BUTYL-N-(4-HYDROXYB, Carcinogen: DIETHYLNITROSAMINE, 55-18-5, N-METHYLNITROSOUREA, 684-93-5, 1,2-DIMETHYLHYDRAZINE, 540-73-8, N-BUTYL-N-(4-HYDROXYB, Dose [Inhibitor]: 0, 1% IN DIET FOR 4 WK BEGINNING 1 DAY PRIOR TO CARCINOGEN TREATMENT (STUDY DURATION: 36 WK), Route [Inhibitor]: ORAL, Species: RAT, Strain/Sex: F344/MALE, Target Tissue: Type of Lesion: SMALL INTESTINE: ADENOMA, Dose [Carcinogen]: 100 MG/KG DEN ONCE, 20 MG/KG MNU 4 TIMES, 40 MG/KG DMH 4 TIMES, 0.05% BBN IN DRINKING WATER FOR 2 WK, 0.1% DHPN IN D, Dose [Carcinogen]: 100 MG/KG DEN ONCE, 20 MG/KG MNU 4 TIMES, 40 MG/KG DMH 4 TIMES, 0.05% BBN IN DRINKING WATER FOR 2 WK, 0.1% DHPN IN D, Promoter: NONE USED): 6/14 (43%), 1/12 (8%), 81%, not calculated
